In PubChem BioAssay AID2060496 (Molecular Pharmacology Branch, DTP, NCI, 2025):

Tested on: 276233-004-R-J1-PDC complex spheroid viability
Test: Anticancer human tumor 276233-004-R-J1-PDC patient-derived colon adenocarcinoma cell line growth inhibition [GQUAD]
Details: for IC50: curve of first compound; for viability, T/C: stronger effect = lower value
In short: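 Viability of tumor cells grown as complex spheroids with endothelial and stromal cells, exposed to drug combinations. Top concentration at or near clinical Cmax (else 10 microM), diluted in half-log increments.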

[1] = second compound 0.0316 µM, first compound 0.0316 µM
[2] = second compound 0.0316 µM, first compound 0.1 µM
[3] = second compound 0.0316 µM, first compound 0.316 µM
[4] = second compound 0.0316 µM, first compound 1 µM
[5] = second compound 0.0316 µM, first compound 3.16 µM
[6] = second compound 0.0316 µM, first compound 10 µM
[7] = second compound 0.1 µM, first compound 0.0316 µM
[8] = second compound 0.1 µM, first compound 0.1 µM
[9] = second compound 0.1 µM, first compound 0.316 µM
[10] = second compound 0.1 µM, first compound 1 µM
[11] = second compound 0.1 µM, first compound 3.16 µM
[12] = second compound 0.1 µM, first compound 10 µM
[13] = second compound 0.316 µM, first compound 0.0316 µM
[14] = second compound 0.316 µM, first compound 0.1 µM
[15] = second compound 0.316 µM, first compound 0.316 µM
[16] = second compound 0.316 µM, first compound 1 µM
[17] = second compound 0.316 µM, first compound 3.16 µM
[18] = second compound 0.316 µM, first compound 10 µM
[19] = second compound 1 µM, first compound 0.0316 µM
[20] = second compound 1 µM, first compound 0.1 µM
[21] = second compound 1 µM, first compound 0.316 µM
[22] = second compound 1 µM, first compound 1 µM
[23] = second compound 1 µM, first compound 3.16 µM
[24] = second compound 1 µM, first compound 10 µM
[25] = second compound 3.16 µM, first compound 0.0316 µM
[26] = second compound 3.16 µM, first compound 0.1 µM
[27] = second compound 3.16 µM, first compound 0.316 µM
[28] = second compound 3.16 µM, first compound 1 µM
[29] = second compound 3.16 µM, first compound 3.16 µM
[30] = second compound 3.16 µM, first compound 10 µM
[31] = second compound 10 µM, first compound 0.0316 µM
[32] = second compound 10 µM, first compound 0.1 µM
[33] = second compound 10 µM, first compound 0.316 µM
[34] = second compound 10 µM, first compound 1 µM
[35] = second compound 10 µM, first compound 3.16 µM
[36] = second compound 10 µM, first compound 10 µM
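Further: spheroids exposed to drugs for seven days.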
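Wherever viability, T/C is given: 100% = DMSO vehicle control viability.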

CC(C)n1c(=O)n(C)c2cnc3cc(F)c(-c4ccc(OCCCN5CCCCC5)nc4)cc3c21 + Cc1cnc(CNC(=O)c2c(=O)c3ccc(N4CCCN(C)CC4)nc3n3c2sc2ccccc23)cn1
IC50 (second compound 0.0316 µM): > 10000 nM
IC50 (second compound 0.1 µM): > 10000 nM
IC50 (second compound 0.316 µM): > 10000 nM
IC50 (second compound 1 µM): > 10000 nM
IC50 (second compound 3.16 µM): > 10000 nM
IC50 (second compound 10 µM): > 10000 nM
viability, T/C [1]: 81.3%
viability, T/C [2]: 71.9%
viability, T/C [3]: 82.5%
viability, T/C [4]: 89.4%
viability, T/C [5]: 79.3%
viability, T/C [6]: 79.2%
viability, T/C [7]: 79%
viability, T/C [8]: 83.4%
viability, T/C [9]: 76.8%
viability, T/C [10]: 78.9%
viability, T/C [11]: 96.5%
viability, T/C [12]: 86.4%
viability, T/C [13]: 85.9%
viability, T/C [14]: 96.7%
viability, T/C [15]: 82.1%
viability, T/C [16]: 78.2%
viability, T/C [17]: 85.2%
viability, T/C [18]: 81.9%
viability, T/C [19]: 69.9%
viability, T/C [20]: 64.9%
viability, T/C [21]: 89.3%
viability, T/C [22]: 81.6%
viability, T/C [23]: 85%
viability, T/C [24]: 69.7%
viability, T/C [25]: 80.4%
viability, T/C [26]: 78%
viability, T/C [27]: 79.3%
viability, T/C [28]: 71.9%
viability, T/C [29]: 75%
viability, T/C [30]: 76.7%
viability, T/C [31]: 74.3%
viability, T/C [32]: 66.7%
viability, T/C [33]: 66.8%
viability, T/C [34]: 69.2%
viability, T/C [35]: 80.8%
viability, T/C [36]: 66.3%

CC[C@@]1(O)C(=O)OCc2c1cc1n(c2=O)Cc2cc3c(CN(C)C)c(O)ccc3nc2-1 + CN(C)c1ccc(Nc2c3ccc(NC(=O)CCN4CCCC4)cc3nc3cc(NC(=O)CCN4CCCC4)ccc23)cc1
IC50 (second compound 0.0316 µM): > 316 nM
IC50 (second compound 0.1 µM): > 316 nM
IC50 (second compound 0.316 µM): > 316 nM
IC50 (second compound 1 µM): > 316 nM
IC50 (second compound 3.16 µM): 93 nM
IC50 (second compound 10 µM): 88.1 nM
viability, T/C (second compound 0.0316 µM, first compound 0.000999 µM): 89.7%
viability, T/C (second compound 0.0316 µM, first compound 0.00316 µM): 110%
viability, T/C (second compound 0.0316 µM, first compound 0.00999 µM): 91.8%
viability, T/C [1]: 103%
viability, T/C (second compound 0.0316 µM, first compound 0.0999 µM): 95.5%
viability, T/C [3]: 91.2%
viability, T/C (second compound 0.1 µM, first compound 0.000999 µM): 84.2%
viability, T/C (second compound 0.1 µM, first compound 0.00316 µM): 87.7%
viability, T/C (second compound 0.1 µM, first compound 0.00999 µM): 84.9%
viability, T/C [7]: 112%
viability, T/C (second compound 0.1 µM, first compound 0.0999 µM): 86.1%
viability, T/C [9]: 85.4%
viability, T/C (second compound 0.316 µM, first compound 0.000999 µM): 68.2%
viability, T/C (second compound 0.316 µM, first compound 0.00316 µM): 84.2%
viability, T/C (second compound 0.316 µM, first compound 0.00999 µM): 66.5%
viability, T/C [13]: 58.5%
viability, T/C (second compound 0.316 µM, first compound 0.0999 µM): 64.8%
viability, T/C [15]: 82%
viability, T/C (second compound 1 µM, first compound 0.000999 µM): 62.6%
viability, T/C (second compound 1 µM, first compound 0.00316 µM): 56.4%
viability, T/C (second compound 1 µM, first compound 0.00999 µM): 66.7%
viability, T/C [19]: 51.6%
viability, T/C (second compound 1 µM, first compound 0.0999 µM): 77.5%
viability, T/C [21]: 57.5%
viability, T/C (second compound 3.16 µM, first compound 0.000999 µM): 64.1%
viability, T/C (second compound 3.16 µM, first compound 0.00316 µM): 61.3%
viability, T/C (second compound 3.16 µM, first compound 0.00999 µM): 56.2%
viability, T/C [25]: 50%
viability, T/C (second compound 3.16 µM, first compound 0.0999 µM): 52.5%
viability, T/C [27]: 46.8%
viability, T/C (second compound 10 µM, first compound 0.000999 µM): 58%
viability, T/C (second compound 10 µM, first compound 0.00316 µM): 58.5%
viability, T/C (second compound 10 µM, first compound 0.00999 µM): 46.7%
viability, T/C [31]: 66.1%
viability, T/C (second compound 10 µM, first compound 0.0999 µM): 43.8%
viability, T/C [33]: 39.8%

CCCS(=O)(=O)Nc1ccc(F)c(C(=O)c2c[nH]c3ncc(-c4ccc(Cl)cc4)cc23)c1F + Cc1[nH]c2ccc(F)cc2c1-c1nc2c3cccnc3c3ncccc3c2[nH]1
IC50 (second compound 0.0316 µM): > 10000 nM
IC50 (second compound 0.1 µM): > 10000 nM
IC50 (second compound 0.316 µM): > 10000 nM
IC50 (second compound 1 µM): < 31.6 nM
IC50 (second compound 3.16 µM): < 31.6 nM
IC50 (second compound 10 µM): < 31.6 nM
viability, T/C [1]: 99.6%
viability, T/C [2]: 82.8%
viability, T/C [3]: 83.3%
viability, T/C [4]: 101%
viability, T/C [5]: 78.8%
viability, T/C [6]: 50.8%
viability, T/C [7]: 95.7%
viability, T/C [8]: 81.7%
viability, T/C [9]: 80.7%
viability, T/C [10]: 78.5%
viability, T/C [11]: 59.7%
viability, T/C [12]: 61.2%
viability, T/C [13]: 74.3%
viability, T/C [14]: 71.2%
viability, T/C [15]: 63.9%
viability, T/C [16]: 65.3%
viability, T/C [17]: 55%
viability, T/C [18]: 61.9%
viability, T/C [19]: 52.9%
viability, T/C [20]: 41.3%
viability, T/C [21]: 44.2%
viability, T/C [22]: 50.1%
viability, T/C [23]: 61.9%
viability, T/C [24]: 37.7%
viability, T/C [25]: 18.2%
viability, T/C [26]: 12.9%
viability, T/C [27]: 27.3%
viability, T/C [28]: 15.5%
viability, T/C [29]: 20.9%
viability, T/C [30]: 13.1%
viability, T/C [31]: 31.9%
viability, T/C [32]: 35.4%
viability, T/C [33]: 42.6%
viability, T/C [34]: 30.3%
viability, T/C [35]: 41.4%
viability, T/C [36]: 27.5%

CC(C)(O)C1CCC(Nc2ccc3ncc(-c4cccc(C(F)(F)F)c4)n3n2)CC1 (stereo not drawn) + Cc1cnc(CNC(=O)c2c(=O)c3ccc(N4CCCN(C)CC4)nc3n3c2sc2ccccc23)cn1
IC50 (second compound 0.0316 µM): > 10000 nM
IC50 (second compound 0.1 µM): > 10000 nM
IC50 (second compound 0.316 µM): > 10000 nM
IC50 (second compound 1 µM): 3000 nM
IC50 (second compound 3.16 µM): 994 nM
IC50 (second compound 10 µM): 995 nM
viability, T/C [1]: 94.9%
viability, T/C [2]: 79.8%
viability, T/C [3]: 81.8%
viability, T/C [4]: 70.6%
viability, T/C [5]: 55.2%
viability, T/C [6]: 58.8%
viability, T/C [7]: 83.2%
viability, T/C [8]: 109%
viability, T/C [9]: 78.4%
viability, T/C [10]: 68.9%
viability, T/C [11]: 49.4%
viability, T/C [12]: 55.6%
viability, T/C [13]: 84.3%
viability, T/C [14]: 92.5%
viability, T/C [15]: 83.7%
viability, T/C [16]: 63.1%
viability, T/C [17]: 54%
viability, T/C [18]: 49.5%
viability, T/C [19]: 80.4%
viability, T/C [20]: 89.2%
viability, T/C [21]: 84.7%
viability, T/C [22]: 67.7%
viability, T/C [23]: 50.4%
viability, T/C [24]: 45.4%
viability, T/C [25]: 79.9%
viability, T/C [26]: 74.3%
viability, T/C [27]: 69.8%
viability, T/C [28]: 51.1%
viability, T/C [29]: 34.7%
viability, T/C [30]: 39.1%
viability, T/C [31]: 75.6%
viability, T/C [32]: 57%
viability, T/C [33]: 58.6%
viability, T/C [34]: 50.5%
viability, T/C [35]: 7.86%
viability, T/C [36]: 3.2%
